From PMC9376946, “Peptide-RNA Coacervates as a Cradle for the Evolution of Folded Domains” (Journal of the American Chemical Society, 2022)
Several values for one entry are separate records, joined by “and”; a condition that tells them apart may be missing. Equal values may be shown once.

Assays:
PA dimer (PA2) = experiment: DEER of singly labeled peptides in solution (dimerization); assay type: binding
Procedure: Lyophilized, spin-labeled peptides were dissolved in Milli-Q water and centrifuged at 4000 rpm for 10 min to remove insoluble aggregates. The soluble fractions were used to prepare stock solutions of 250–500 μM peptide. Labeled peptide concentrations were determined by comparing the area under the curve of the EPR signal against that of standard solutions of 10–285 μM TEMPO. For the EPR measurements in D2O, 200 μL of the stock solution was lyophilized and re-dissolved in D2O. The concentration of the unlabeled peptide stock solutions was determined using the bicinchoninic acid assay (Thermo Fisher Scientific) and ranged from 0.8 to 1.2 mM peptide. […]
Pulse EPR measurements were carried out at the W band (94.9 GHz) on a home-built spectrometer at 25 K.[22]−[24] Echo intensities were measured with a Hahn echo sequence (π/2νobs – τ – πνobs – τ – echo) using π/2 and π pulses of 20–25 ns and 40–50 ns, respectively, and τ = 500 ns. Echo decays were measured under the same conditions with an initial τ value of 500 ns. DEER measurements were recorded using the four-pulse DEER sequence (π/2νobs – τ1 – πνobs – (τ1 + t) – πνpump – (τ2-t) – πνobs – τ2 – echo)[25],[26] with a chirp pump pulse[23] using eight-step phase cycling and monitoring the echo intensity as a function of increasing t. […]

polyU = experiment: CW-EPR of PA-12 in the presence of polyU (bound, slow-motion population); assay type: binding; conditions: spectral simulation
Procedure: Lyophilized, spin-labeled peptides were dissolved in Milli-Q water and centrifuged at 4000 rpm for 10 min to remove insoluble aggregates. The soluble fractions were used to prepare stock solutions of 250–500 μM peptide. Labeled peptide concentrations were determined by comparing the area under the curve of the EPR signal against that of standard solutions of 10–285 μM TEMPO. For the EPR measurements in D2O, 200 μL of the stock solution was lyophilized and re-dissolved in D2O. The concentration of the unlabeled peptide stock solutions was determined using the bicinchoninic acid assay (Thermo Fisher Scientific) and ranged from 0.8 to 1.2 mM peptide. A stock solution of 500 mM MES, pH 5.6 was used to adjust all samples to a final concentration of 50 mM MES, pH 5.6. Aliquots of 10 mg/mL polyuridylic acid (polyU; Sigma Aldrich) were prepared in Milli-Q water and diluted as necessary. For CW-EPR measurements, a quartz capillary of 0.6 mm i.d. and 0.84 mm o.d. was filled with 7–8 μL of the sample and sealed with Critoseal (Fisherbrand, Fisher Scientific) at one end. A single capillary was placed in an X-band EPR tube of 2 mm i.d. and 2.4 mm o.d. for measurements, except for spin concentration below 50 μM, where two capillaries were used.
Each sample was freshly prepared and the time to collect […] CW-EPR data was 30–40 min.
CW-EPR spectra were recorded on an Elexsys E500 X-Band (9.5 GHz) Bruker spectrometer using a high sensitivity resonator at room temperature. The following parameters were used: 0.1 mT field modulation amplitude, a 15 mT scan range, and 20 mW microwave power. Each scan was 42 s and at least 9 scans were accumulated for each data set. For samples with a high concentration of polyU or a low concentration of labeled peptide, at least 25–36 scans were collected to improve the signal to noise (S/N) ratio. Simulations of the spectra were performed using the “Chili” routine of EasySpin (www.easyspin.org).[21]
After characterizing the dynamic and structural properties of PA in solution, we proceeded to explore these properties upon interaction with the homopolymeric RNA molecule polyU. […] PA-12, like the unlabeled peptide, produced coacervates.[17] […] Using CW-EPR, binding of PA to RNA can be tracked through spin label dynamics. We initially kept the concentration of PA-12 constant at 150 μM and varied the amount of polyU. The CW-EPR spectra in Figure 3B indicate superposition of two populations, I and II. […] The relative intensity of II increases with the amount of polyU added, indicating binding of PA-12 to polyU. The percentage of II increased from 32% at 0.1 mg/mL polyU to 93% at 1 mg/mL polyU. Increasing to 2 mg/mL polyU and reducing the PA-12 concentration to 100 μM increased the population of II to 95% (Figures 3B and S15G). Such restricted motion and dynamic components have also been reported for proteins undergoing phase separation.[38],[39]

For “RIRRASVEELTCVPGIGPRLARRILERLA [PA-12, Precursor-Arg peptide in which position 12 has been modified with a cysteine and attached to an M-TEMPO spin label]”, the “DEER modulation depth (Δ)” value (PA dimer (PA2); 30 μM, without polyU) was 2%, the “inter-monomer distances upon spin dilution” value (PA dimer (PA2); about 10% spin-labeled peptide, 200 μM total PA) was “inter-monomer distances practically disappear” and the “population I (fast motion)” value (polyU; 30 μM PA-12, 1 mg/mL polyU) was 40 ± 5% and 40%. For the same sequence, the “population II (slow motion, polyU-bound)” value (polyU; 30 μM PA-12, 1 mg/mL polyU) was 60 ± 5% and 60%, the “population I (fast motion)” value (polyU; 50 μM PA-12, 1 mg/mL polyU) was 25 ± 5% and the “population II (slow motion, polyU-bound)” value (polyU; 50 μM PA-12, 1 mg/mL polyU) was 75 ± 5%. For the same sequence, the “population I (fast motion)” value (polyU; 100 μM PA-12, 1 mg/mL polyU) was 10 ± 4%, the “population II (slow motion, polyU-bound)” value (polyU; 100 μM PA-12, 1 mg/mL polyU) was 90 ± 4% and the “population II (slow motion, polyU-bound)” value (polyU; 100 μM PA-12, 2 mg/mL polyU, 50 mM MES pH 5.6, room temperature) was 95%. For the same sequence, the “population II (slow motion, polyU-bound)” value (polyU; 150 μM PA-12, 0.1 mg/mL polyU, 50 mM MES pH 5.6, room temperature) was 32%, the “population II (slow motion, polyU-bound)” value (polyU; 150 μM PA-12, 1 mg/mL polyU, 50 mM MES pH 5.6, room temperature) was 93 ± 2% and 93% and the “population I (fast motion)” value (polyU; 150 μM PA-12, 1 mg/mL polyU) was 7 ± 2%. The “population I (fast motion)” value (polyU; 200 μM PA-12, 1 mg/mL polyU) was 4 ± 2% and the “population II (slow motion, polyU-bound)” value (polyU; 200 μM PA-12, 1 mg/mL polyU) was 96 ± 2% and 96%.
